The target in one data set is T1, PPARδ (Homo sapiens, UniProt Q03181).
T1 construct: PPARδ (aa 139 to 442); made in house; host or cells: E. coli BL21 (pLysS)
T1 sequence (Q03181 139-441 limits assumed): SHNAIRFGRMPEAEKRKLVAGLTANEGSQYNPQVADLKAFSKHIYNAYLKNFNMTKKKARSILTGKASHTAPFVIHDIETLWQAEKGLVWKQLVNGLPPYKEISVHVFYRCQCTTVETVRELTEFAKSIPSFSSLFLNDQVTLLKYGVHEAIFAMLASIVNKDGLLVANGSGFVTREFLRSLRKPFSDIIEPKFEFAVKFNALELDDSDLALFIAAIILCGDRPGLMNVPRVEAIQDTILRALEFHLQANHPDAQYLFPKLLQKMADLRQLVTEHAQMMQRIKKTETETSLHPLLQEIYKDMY
Kind of data set: Radioligand binding assay (SPA), PPARδ receptor binding. Particulars: GST-PPARδ-LBD fusion protein, scintillation proximity radioligand binding. An excerpt:
(§1) Full-length cDNA clones for humans PPARδ and PPARα and mouse PPARγ were obtained by RT-PCR from human adipose and mouse liver cRNA, respectively, cloned into plasmid vectors and verified by DNA sequencing. Bacterial and mammalian expression vectors were constructed to produce glutathione-s-transferase (GST) and Gal4 DNA binding domain proteins fused to the ligand binding domains (LBD) of PPARδ (aa 139 to 442), PPARγ (aa 174 to 476) and PPARα (aa 167 to 469). To accomplish this, the portions of the cloned sequences encoding the LBDs were amplified from the full-length clones by PCR and then subcloned into the plasmid vectors. Final clones were verified by DNA sequence analysis.
(§2) Induction, expression, and purification of GST-LBD fusion proteins were performed in E. coli strain BL21 (pLysS) cells by standard methods (Ref: Current Protocols in Molecular Biology, Wiley Press, edited by Ausubel et al.).
PPARδ receptor binding was assayed in HNM10 (50 mM Hepes, pH 7.4, 10 mM NaCl, 5 mM MgCl2, 0.15 mg/ml fatty acid-free BSA and 15 mM DTT). For each 96 well reaction a 500 ng equivalent of GST-PPARδ-LBD fusion protein and radioligand, e.g. 20000 dpm {2-methyl-4-[4-methyl-2-(4-trifluoromethyl-phenyl)-thiazol-5-yl-ditritiomethylsulfanyl]-phenoxy}-acetic acid, was bound to 10 μg SPA beads (PharmaciaAmersham) in a final volume of 50 μl by shaking. The resulting slurry was incubated for 1 h at RT and centrifuged for 2 min at 1300 g. The supernatant containing unbound protein was removed and the semidry pellet containing the receptor-coated beads was resuspended in 50 μl of HNM. Radioligand was added and the reaction incubated at RT for 1 h and scintillation proximity counting performed in the presence of test compounds was determined. All binding assays were performed in 96 well plates and the amount of bound ligand was measured on a Packard TopCount using OptiPlates (Packard). Dose response curves were done in triplicates within a range of concentration from 10^−10 M to 10^−4 M.
(In a scintillation proximity assay essentially only radioactivity close to the scintillant gives light.)

The target in a further data set is T2, PPARα (Homo sapiens, UniProt Q07869).
T2 construct: PPARα (aa 167 to 469); made in house; host or cells: E. coli BL21 (pLysS)
T2 sequence (Q07869 167-468 limits assumed): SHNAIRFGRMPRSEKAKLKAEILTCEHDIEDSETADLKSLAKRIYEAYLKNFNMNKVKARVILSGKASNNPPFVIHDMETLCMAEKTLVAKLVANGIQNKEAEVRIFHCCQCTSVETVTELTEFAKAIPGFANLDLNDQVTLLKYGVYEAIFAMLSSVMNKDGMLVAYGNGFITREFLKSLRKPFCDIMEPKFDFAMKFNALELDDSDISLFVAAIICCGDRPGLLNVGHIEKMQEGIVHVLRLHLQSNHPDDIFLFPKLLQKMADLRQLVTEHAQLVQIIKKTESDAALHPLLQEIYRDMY
Briefly: Radioligand binding assay (SPA), PPARα receptor binding. Particulars: GST-PPARα-LBD fusion protein, scintillation proximity radioligand binding.
Description: as §1, §2
PPARα receptor binding was assayed in TKE50 (50 mM Tris-HCl, pH 8, 50 mM KCl, 2 mM EDTA, 0.1 mg/ml fatty acid-free BSA and 10 mM DTT). For each 96 well reaction an 140 ng equivalent of GST-PPARα-LBD fusion protein was bound to 10 μg SPA beads (PharmaciaAmersham) in a final volume of 50 μl by shaking. The resulting slurry was incubated for 1 h at RT and centrifuged for 2 min at 1300 g. The supernatant containing unbound protein was removed and the semidry pellet containing the receptor-coated beads was resolved in 50 μl of TKE. For radioligand binding e.g. 10000 dpm of 2(S)-(2-benzoyl-phenylamino)-3-{4-[1,1-ditritio-2-(5-methyl-2-phenyl-oxazol-4-yl)-ethoxy]-phenyl}-propionic acid or 2,3-ditritio-2(S)-methoxy-3-{4-[2-(5-methyl-2-phenyl-oxazol-4-yl)-ethoxy]-benzo [b]thiophen-7-yl}-propionic acid in 50 ul were added, the reaction incubated at RT for 1 h and scintillation proximity counting performed. All binding assays were performed in 96 well plates and the amount of bound ligand measured on a Packard TopCount using OptiPlates (Packard). Nonspecific binding was determined in the presence of 10^−4 M unlabelled compound. […]

Another data set has as its target T3, PPARγ (Mus musculus, UniProt P37238).
T3 construct: PPARγ (aa 174 to 476); made in house; host or cells: E. coli BL21 (pLysS)
T3 sequence (P37238 204-505): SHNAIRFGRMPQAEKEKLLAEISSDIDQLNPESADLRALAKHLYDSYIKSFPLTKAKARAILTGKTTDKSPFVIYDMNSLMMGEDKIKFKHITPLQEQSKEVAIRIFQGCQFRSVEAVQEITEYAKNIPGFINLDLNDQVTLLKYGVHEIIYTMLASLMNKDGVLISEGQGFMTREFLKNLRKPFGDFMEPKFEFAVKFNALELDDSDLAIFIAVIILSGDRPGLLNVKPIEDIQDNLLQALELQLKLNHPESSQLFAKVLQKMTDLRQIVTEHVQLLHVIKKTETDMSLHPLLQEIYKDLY
Briefly: Radioligand binding assay (SPA), PPARγ receptor binding. As to conditions: GST-PPARγ-LBD fusion protein, scintillation proximity radioligand binding.
Description: as §1, §2
PPARγ receptor binding was assayed in TKE50 (50 mM Tris-HCl, pH 8, 50 mM KCl, 2 mM EDTA, 0.1 mg/ml fatty acid-free BSA and 10 mM DTT). For each 96 well reaction an 140 ng equivalent of GST-PPARγ-LBD fusion protein was bound to 10 μg SPA beads (PharmaciaAmersham) in a final volume of 50 μl by shaking. The resulting slurry was incubated for 1 h at RT and centrifuged for 2 min at 1300 g. The supernatant containing unbound protein was removed and the semidry pellet containing the receptor-coated beads was resolved in 50 ul of TKE. For radioligand binding e.g. 10000 dpm 2(S)-(2-benzoyl-phenylamino)-3-{4-[1,1-ditritio-2-(5-methyl-2-phenyl-oxazol-4-yl)-ethoxy]-phenyl}-propionic acid in 50 μl were added, the reaction incubated at RT for 1 h and scintillation proximity counting performed. All binding assays were performed in 96 well plates and the amount of bound ligand measured on a Packard TopCount using OptiPlates (Packard). Nonspecific binding was determined in the presence of 10^−4 M unlabelled compound. Dose response curves were done in triplicates within a range of concentration from 10^−10 M to 10^−4 M.

This note sets out measurements from patent US7253192B2, “Phenyl derivatives comprising an acetylene group” (Hoffmann-La Roche Inc., priority 2004, dated 2007).

pIC50: −log10 of the molar value.

The term pIC50 denotes −log10 of the IC50, conventionally taken in molar units. As usually defined, the melting point is the temperature of the solid-liquid transition. Consider `Cc1cc(OCCC#Cc2ccc(OC(F)(F)F)cc2)ccc1OC(C)(C)C(=O)O` [Example 17, 2-Methyl-2-{2-methyl-4-[4-(4-trifluoromethoxy-phenyl)-but-3-ynyloxy]-phenoxy}-propionic acid], for which the melting point was 62 to 71 °C (dec.). At PPARδ, this molecule showed a pIC50 of 6.69. This molecule showed a pIC50 on PPARα of 7.74. For the same molecule, the pIC50 on PPARγ was less than 5.00.
